Test results from article PMC4366150, “Inhibiting EGFR Dimerization Using Triazolyl-Bridged Dimerization Arm Mimics” (PLoS ONE, 2015).
Positions of bridges follow the written chain, without caps; N, C: chain ends. Non-standard residues stand in square brackets, D forms with d. Residues, ends and D or L forms follow the SMILES beside them. Triazole bridges read from a SMILES are 1,4-linked. *: point of attachment. 5FAM = O=C1OC2(c3ccc(O)cc3Oc3cc(O)ccc32)c2ccc(C(=O)*)cc21; Aha = [N-]=[N+]=NCC[C@H](N)C(=O)O; Nle = CCCC[C@H](N)C(=O)O; Pra = C#CC[C@H](N)C(=O)O; βAla = NCCC(=O)O

Experiments:
Type in all cases: cell-based
[1] = test system: EGFR p-Tyr1068; assay: EGFR phosphorylation (Tyr1068) in MDA-MB-231 cells, western blot; settings: 30 min pretreatment, 50 ng/mL EGF 5 min
Protocol: (§1) The EDA peptides were first tested to see if they could downregulate EGFR activation. Receptor activation was monitored as a function of EGFR autophosphorylation on Tyr1068 in intact MDA-MB-231 cells (Fig. 5a and b and S3 Fig.). The receptor was stimulated with EGF for 5 min following a 30 min peptide pretreatment.
Fig 5 EDA2 down-regulates activated EGFR and reduces cell viability. (a) Cells were stimulated with 50 ng/mL EGF for 5 min in the presence or absence of EDA peptides, followed by western blotting. An apparent decrease in phosphorylated EGFR was observed when treated with EDA2. Vertical lines indicate non-adjacent samples from the same western blot. […] Data is plotted as the average of at least three experiments, where error bars represent SEM. * p < 0.05, ** p < 0.01 relative to the EGF-stimulated control. […] (c) A panel of cell lines was dosed daily with EDA2 or gefitinib for 5 days, and viability was quantified using the Cell Titer Blue assay. […]
Proteins were separated by 8% SDS-PAGE then transferred onto PVDF membrane. […] Bands were visualized by chemiluminescence and quantified using Licor Image Studio Lite. […] Significance values were calculated using two-way ANOVA with Bonferonni multiple-comparison test. […] Significance values were calculated using one-way ANOVA with Bonferonni multiple-comparison test. […]

[2] = test system: MDA-MB-231 cells; assay: Cell viability, Cell Titer Blue, MDA-MB-231; settings: 6.25 μM, dosed daily for 5 days, average of quadruplicates
Protocol: (§2) Fig 5 EDA2 down-regulates activated EGFR and reduces cell viability. (a) Cells were stimulated with 50 ng/mL EGF for 5 min in the presence or absence of EDA peptides, followed by western blotting. An apparent decrease in phosphorylated EGFR was observed when treated with EDA2. Vertical lines indicate non-adjacent samples from the same western blot. […] Data is plotted as the average of at least three experiments, where error bars represent SEM. * p < 0.05, ** p < 0.01 relative to the EGF-stimulated control. All remaining means are not significant (p > 0.05) relative to the EGF-stimulated control. (c) A panel of cell lines was dosed daily with EDA2 or gefitinib for 5 days, and viability was quantified using the Cell Titer Blue assay. […]
(§3) Since EDA2 appeared to downregulate EGFR phosphorylation, we sought to determine whether this activity could also lead to a decrease in cell viability (Fig. 5c). Three diverse, EGFR-expressing cell lines (MDA-MB-231, PC-3, and BxPC-3) were dosed daily with EDA2 over a 0–50 μM concentration range over a five-day time course, after which cell viability was quantified using the Cell Titer Blue assay. […]
(§4) MDA-MB-231, PC-3, or Bx-PC3 cells were seeded at 7,500 cells/well in a 96 well plate and allowed to adhere in RPMI-1640 containing 1% FBS. […] Fluorescence was quantified using 530 nm excitation and 590 nm emission filters. […]

[3] = test system: PC-3 cells; assay: Cell viability, Cell Titer Blue, PC-3; settings: 6.25 μM, dosed daily for 5 days, average of quadruplicates
Protocol: as §2, §3, §4

[4] = test system: BxPC-3 cells; assay: Cell viability, Cell Titer Blue, BxPC-3; settings: 6.25 μM, dosed daily for 5 days, average of quadruplicates
Protocol: as §2, §3, §4

[5] = biological target: T1, total EGFR (Homo sapiens, UniProt P00533); assay: Total EGFR protein levels in MDA-MB-231 cells, western blot; settings: peptide 30 min, 50 ng/mL EGF 5 min, western blot normalized to tubulin, average of two experiments
T1 construct: EGFR autophosphorylation on Tyr1068 in intact MDA-MB-231 cells; endogenous in cells; host or cells: MDA-MB-231 (ATCC)
Protocol: as §1
While EDA2 downregulates receptor phosphorylation, we also wanted to investigate whether EGFR dimerization itself was inhibited. As a strategy to measure the number of detectable EGFR dimers in intact cells, a quantitative Proximity Ligation Assay (PLA) was performed (Fig. 6). Cells were stimulated with EGF in the presence or absence of EDA2 or its scramble control (EDA2-Scr). […] Fluorescence microscopy was used to visualize the DAPI and PLA signals.
Proteins were separated by 8% SDS-PAGE then transferred onto PVDF membrane. […] Bands were visualized by chemiluminescence and quantified using Licor Image Studio Lite. […] Significance values were calculated using two-way ANOVA with Bonferonni multiple-comparison test. […] Significance values were calculated using one-way ANOVA with Bonferonni multiple-comparison test.
Supplementary file pone.0118796.s004.tif: S4 Fig The effect of EDA2 and its controls on total EGFR protein levels in the cell. […] Cells were immediately lysed and total EGFR levels were analyzed by western blotting. […]

Row | Compound | reduction of EGFR phosphorylation (Tyr1068) compared to untreated cells ([1]; 5 μM peptide, normalized to tubulin, average of at least three experiments) | reduction of cell viability [2] [%] | reduction of cell viability [3] [%] | reduction of cell viability [4] [%] | effect on EGFR expression (total EGFR) (in words) [5] | effect on EGFR phosphorylation (Tyr1068) (in words) ([1]; 0.05, 0.5 or 5 μM peptide, western blot)
1 | CCCC[C@@H]1NC(=O)[C@H](CCC(N)=O)NC(=O)[C@H](Cc2ccc(O)cc2)NC(=O)[C@H]([C@@H](C)O)NC(=O)[C@H]([C@@H](C)O)NC(=O)[C@@H]2CCCN2C(=O)[C@H](CC(N)=O)NC(=O)[C@H](Cc2ccc(O)cc2)NC(=O)[C@@H](NC(=O)c2ccc3c(c2)C(=O)OC32c3ccc(O)cc3Oc3cc(O)ccc32)Cc2cn(nn2)CC[C@@H](C(N)=O)NC1=O [EDA2] (5FAM-[Pra]YNPTTYQ[Nle][Aha]-NH2; triazole 1-10) | greater than 60% | 50 | 72 | 34 | no effect | 
2 | CCCC[C@H](NC(=O)[C@H](CCC(N)=O)NC(=O)[C@H](Cc1ccc(O)cc1)NC(=O)[C@@H](NC(=O)[C@@H](NC(=O)[C@@H]1CCCN1C(=O)[C@H](CC(N)=O)NC(=O)[C@H](Cc1ccc(O)cc1)NC(=O)[C@H](C)NC(=O)CCNC(=O)c1ccc2c(c1)C(=O)OC21c2ccc(O)cc2Oc2cc(O)ccc21)[C@@H](C)O)[C@@H](C)O)C(=O)N[C@@H](C)C(N)=O [non-modified control, reference compound] ({5FAM-βAla}-AYNPTTYQ[Nle]A-NH2) |  |  |  |  |  | no inhibitory effect
